# Source: US10561676B2, “Method for treating cancer using dual antagonists of CXCR1 and CXCR2” (Syntrix Biosystems, Inc., priority 2018, dated 2020)
# How the values were obtained:
# [1] = system: LLC syngeneic mouse model of lung cancer; assay: LLC syngeneic mouse model of lung cancer; assay type: in vivo
# Protocol: The Lewis lung carcinoma (LLC) mouse model (Kellar, 2015, Biomed Res Int, 2015:621324, herein incorporated by reference) was used to evaluate the effect of SX-682 alone and in combination with anti-PD-1 antibody. LLC mouse […] cells were cultured, then mice were injected with 0.5×10^6 LLC cells on day 0, and on day 18 treatment was initiated. Mice were treated with vehicle (control), SX-682 alone (50 mg/kg twice daily, oral), anti-PD-1 alone (100 μg twice weekly, i.p.), or SX-682 in combination with anti-PD-1 (N=5 per cohort). SX-682 was used as a spray dried dispersion (Formulation Example 1), and was administered to mice via oral gavage as a suspension in 0.5% aq. methylcellulose.
# Sprague-Dawley rats = assay: Ozone rat model of pulmonary inflammation (neutrophil influx into BALF); assay type: in vivo
# Protocol: SX-682 was assayed in an in vivo rat model of pulmonary inflammation. Activity in this model of pulmonary inflammation provides evidence that supports the use of SX-682 in the treatment of a number of pulmonary inflammatory diseases, including chronic obstructive pulmonary disease (COPD) and bronchopulmonary dysplasia (BPD). In this experiment, Sprague-Dawley rats (n=4 per cohort) were dosed intravenously only once at t=0 with either vehicle control (dimethylformamide/PEG400/saline, 40:40:20), positive inhibitor control (SX-576, 1 mg/kg) or the test compound (SX-682, 1 mg/kg). The rats were then placed in air (negative exposure group; vehicle control only) or 1 ppm ozone (positive exposure group; vehicle control, positive inhibitor control SX-576, and test compound SX-682) for 4 hours. The rats were then sacrificed at t=24 hours, and the bronchoalveolar lavage fluid (BALF) was collected. The cells were spun down, stained with Wright-Giemsa and counted. In the negative exposure group, no neutrophils were observed when stained. In the ozone exposed rats treated with vehicle however, there was a brisk influx of neutrophils of approximately 14,000 per mL of BALF (FIG. 5).
# [2] = Stability in human liver microsomes (NADPH-dependent); assay type: in vitro ADME
# Protocol: The compounds were incubated in duplicate with human liver microsomes at 37° C. The reaction contained microsomal protein in 100 mM potassium phosphate, 2 mM NADPH, 3 mM MgCl2, pH 7.4. A control was run for each compound omitting NADPH to detect NADPH-independent degradation. An aliquot was removed from each experimental and control reaction at 0, 10, 20, 30, and 60 minutes and mixed with an equal volume of ice-cold Stop Solution (0.3% acetic acid in acetonitrile containing haloperidol, diclofenac, or other internal standard). Stopped reactions were incubated for at least ten minutes at −20° C., and an additional volume of water was added. The samples were centrifuged to remove precipitated protein, and the supernatants were analyzed by LCMS/MS to quantitate the remaining compound. Data were converted to percent remaining by dividing by the time zero concentration value. Data were fit to a first-order decay model to determine half-life. Intrinsic clearance was calculated from the half-life and the protein concentrations: CLint=ln(2)/(t½[microsomal protein]). […] More surprising is that eliminating the ring nitrogen in SX-517 yielded a half-life even larger than that of SX-682. The results as a whole led to no SAR predictive of the surprising stability of SX-682.
# CXCR1 = biological target: T1, CXCR1 (Homo sapiens, UniProt P25024); assay: Wash-resistant inhibition of CXCL8-mediated calcium flux, CXCR1-transfected RBL cells; assay type: cell-based; conditions: 30 min incubation at 0.4, 2, 10 μM, then washout
# T1 construct: expressed in transfected cells
# T1 sequence (P25024 1-350): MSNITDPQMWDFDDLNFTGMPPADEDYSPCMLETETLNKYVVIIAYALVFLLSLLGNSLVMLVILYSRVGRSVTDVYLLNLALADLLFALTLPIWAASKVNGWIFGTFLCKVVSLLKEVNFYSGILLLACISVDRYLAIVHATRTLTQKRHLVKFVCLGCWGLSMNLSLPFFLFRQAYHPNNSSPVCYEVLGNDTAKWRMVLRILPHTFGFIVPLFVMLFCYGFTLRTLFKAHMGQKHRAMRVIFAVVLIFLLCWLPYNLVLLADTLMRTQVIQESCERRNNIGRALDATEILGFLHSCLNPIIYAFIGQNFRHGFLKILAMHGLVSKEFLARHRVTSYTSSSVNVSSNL
# Protocol: In order to test this hypothesis, RBL cells (10^7 cells/ml) stably transfected with either CXCR1 or CXCR2 were (1) incubated with SX-682 at various concentrations for 30 minutes at 37° C., (2) washed and resuspended in assay buffer (RPMI/2% serum) at room temperature, and (3) assayed for CXCL8-mediated calcium response at time points up to 12 h after inhibitor washout. The concentrations of SX-682 tested were 0 (positive control), 0 (negative control), 0.4, 2, and 10 μM. At 30 minutes before each time point, a 56.25 μl aliquot of the cells were removed and loaded for 30 minutes at room temperature in the dark with FLIPR™ 3 reagent (262.5 μl per tube). Following FLIPR™ 3 incubation, cells were assayed for CXCL8 mediated intracellular calcium release as described in Pharmacology Example 1.
# [3] = system: T11 mouse model of breast cancer; assay: T11 mouse model of breast cancer; assay type: in vivo
# Description: The T11 model is a validated mouse model of breast cancer, which derives from the serial orthotopic transplantation of a murine breast tumor derived from a p53-null mouse into a syngeneic p53 competent recipient, and features sporadic, somatic K-Ras mutation (Herschkowitz, 2012, Proc Natl Acad Sci, 109:2778-83, herein incorporated by reference). Tumors from the T11 model display an RNA expression pattern characteristic of the human claudin-low disease, and are extremely aggressive, with the majority of untreated animals surviving less than 21 days from the time of enrollment in the therapy studies. Treatment regimens were started following tumor manifestation. SX-682 was given orally via medicated feed, at an approximate dose of 10 mg/day/mouse. In brief, the medicated feed was prepared by Research Diets (New Brunswick, N.J.) by incorporating 15.2 grams of SX-682 spray dried dispersion (as prepared in Formulation Example 1) into 1042 grams of standard rodent diet with 10% kcals from fat. The medicated feed was formed into pellets. Carboplatin (CP) was administered once weekly via intraperitoneal injection at a dose of 50 mg/kg. […] Mean±SE. *** P<0.0001 (linear regression).
structure (smiles),measurement,setting,value
"O=C(Nc1ccc(F)cc1)c1cnc(SCc2cc(OC(F)(F)F)ccc2B(O)O)nc1 [SX-682, 2-(2-boronic acid-5-trifluoromethoxy-benzylsulfanyl)-pyrimidine-5-carboxylic acid (4-fluoro-phenyl)-amide]","tumor growth, SX-682 monotherapy","[1]; 50 mg/kg twice daily, oral",significantly slowed tumor growth
same,"tumor growth, SX-682 in combination with anti-PD-1",[1]; SX-682 50 mg/kg twice daily oral + anti-PD-1 100 μg twice weekly i.p.,significantly better than either therapy alone
same,"survival, SX-682 in combination with anti-PD-1","[1]; vs vehicle or anti-PD-1 alone, up to 66 days",significantly enhanced survival
same,influx of neutrophils into the lungs (BALF) vs vehicle,"Sprague-Dawley rats; 1 mg/kg i.v. once, 1 ppm ozone 4 hours, BALF at 24 hours",significantly decreased the influx of neutrophils
same,time inhibition of neutrophil influx into BALF is sustained,Sprague-Dawley rats; single dose of 1 mg/kg i.v.,24 h
same,microsomal half-life larger than SX-671 or SX-576,[2],6 fold
same,microsomal CLint,"[2]; pH 7.4, 37° C., NADPH-dependent, read-out: CLint, microsomal intrinsic clearance",2.1 µL/min/mg
same,time inhibition of calcium flux is sustained after washout,CXCR1,at least 12 hours
same,"tumor volume, SX-682 alone","[3]; 10 mg/day/mouse oral, 1-2 weeks",effective therapy
same,"tumor growth, SX-682 added to carboplatin",[3]; SX-682 10 mg/day/mouse oral feed + CP 50 mg/kg weekly i.p.,significantly reduced tumor growth
